Read-outs that look alike come from different tables or passages of the source.
How the values were obtained:
HRV3C = molecular target: T1, HRV3C (Human rhinovirus 14, UniProt P03303); assay: biochemical
T1 construct: SARS-Cov-2 3CLpro and HRV3C Duplex Assay

[1] = system: human beta-coronavirus OC43; assay: OC43 coronavirus assay in HeLa cells (cytopathic effect, cell-titer-glo); format: cell-based
[2] = Cytotoxicity plates without OC43 virus in HeLa cells; format: cell-based; settings: human, HeLa cells (uninfected), class symbols
Experimental: The human beta-coronavirus OC43 was purchased from ATCC (Manassas, VA) and propagated using HCT-8 human colorectal epithelial cells (ATCC). HeLa human cervical epithelial cells (ATCC) were used as susceptible host cell lines and were cultured using EMEM media, supplemented with 10% fetal bovine serum (FBS), 1% (v/v) penicillin/streptomycin (P/S), 1% (v/v) HEPES and 1% (v/v) cellgro Glutagro™ supplement (all Corning, Manassas, VA) at 37° C. For the OC43 antiviral assay, 1.5×10^4 HeLa cells per well were plated in 100 μL complete media in white 96-well plates with clear bottoms at 37° C. for up to 24 h to facilitate attachment and allow cells to recover from seeding stresses. Next day, the cell culture medium was removed. Serially diluted compounds in 100 μL assay media (EMEM, 2% FBS, 1% P/S, 1% cellgro Glutagro™ supplement, 1% HEPES) were added to the cells and incubated for 4H at 37° C. in a humidified 5% CO2 incubator. 100 μL of OC43 virus stock was diluted to a concentration known to produce optimal cytopathic effect, inducing 80-90% reduction in cell viability. 96-well plates were incubated for 6 (HeLa) days at 33° C.; each plate contains uninfected control wells as well as virus-infected wells that were not treated with compound. Cytotoxicity plates without the addition of OC43 virus were carried out in parallel. At the end of the incubation period, 100 μL cell culture supernatant was replaced with 100 μL cell-titer-glo reagent (Promega, Madison, WI) and incubated for at least 10 min at rt prior to measuring luminescence. Luminescence was measured on a Perkin Elmer (Waltham, MA) Envision plate reader. Antiviral % inhibition was calculated as follows: [(Compound treated cells infected sample)−(no compound infected control)]/[(Uninfected control)−(no compound infected control)]*100; Using GraphPad (San Diego, CA) prism software version 8.3.1, the antiviral dose-response plot was generated as a sigmoidal fit, log(inhibitor) vs response-variable slope (four parameters) model and the EC50 was calculated which is the predicted compound concentration corresponding to a 50% inhibition of the viral cytopathic effect.

[3] = system: SARS-CoV-2-GHB-03021/2020; assay: microbe, parasite or virus in culture; format: cell-based
human cathepsin L = molecular target: T2, human cathepsin L (Homo sapiens, UniProt P07711); assay: Cathepsin L assay (Z-FR-AMC fluorescence); format: biochemical; settings: 10 pM human cathepsin L, 30 mins preincubation; class symbols
T2 construct: purchased R&D Systems
T2 sequence (P07711 114-333): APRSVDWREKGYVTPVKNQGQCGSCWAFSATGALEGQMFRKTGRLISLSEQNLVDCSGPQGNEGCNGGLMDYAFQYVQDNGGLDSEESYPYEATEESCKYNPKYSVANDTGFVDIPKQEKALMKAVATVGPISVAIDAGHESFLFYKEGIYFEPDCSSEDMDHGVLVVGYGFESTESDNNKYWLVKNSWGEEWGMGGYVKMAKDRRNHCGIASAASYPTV
Experimental: For the cathepsin L assay, 10 pM of human cathepsin L (R&D Systems; Minneapolis, MN) was preincubated for 30 mins with test compounds. Reactions were initiated by the addition of a peptide substrate Z-FR-AMC (final concentration 2 μM, Anaspec; Fremont, CA). Fluorescence was measured at 2-minute intervals for 30 mins using a 355/460 excitation/emission filter module on an Envision plate reader (Perkin Elmer; Waltham, MA). The IC50 values were calculated for each assay by fitting the curves using a four-parameter equation in GraphPad Prism.

SARS-Cov-2 3CLpro = molecular target: T3, SARS-Cov-2 3CLpro (Severe acute respiratory syndrome coronavirus 2, UniProt P0DTD1); assay: SARS-Cov-2 3CLpro and HRV3C duplex assay (SAMDI-MS): 3CLpro; format: biochemical; settings: 3CLpro, duplex assay, 30 mins preincubation; class symbols; read-out: SARS-Cov-2 IC50
T3 construct: SARS-Cov-2 3CLpro and HRV3C Duplex Assay

[4] = HRV3C, duplex assay, 30 mins preincubation, class symbols, read-out: HRV IC50
[5] = Betacoronavirus 1, 144 h, OC43 in HeLa cells, 6 days at 33° C., class symbols, read-out: EC50
[6] = Severe acute respiratory syndrome coronavirus 2, Vero C1008, 96 h; read-out: VeroE6 + CP (EC50)

T1 sequence (P03303 1538-1719): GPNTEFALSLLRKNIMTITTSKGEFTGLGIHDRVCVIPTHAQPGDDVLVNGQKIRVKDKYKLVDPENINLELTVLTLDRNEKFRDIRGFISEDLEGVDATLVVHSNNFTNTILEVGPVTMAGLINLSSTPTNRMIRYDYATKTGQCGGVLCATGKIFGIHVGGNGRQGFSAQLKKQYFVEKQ

O=C(NC1CC1)C(=O)C(C[C@@H]1CCNC1=O)NC(=O)[C@@H]1CC2(CCN1C(=O)c1cc3cccc4c3n1CCC4)CC2 (stereo partly drawn) [Compound 19, 3-{[(5S)-6-{1-azatricyclo[6.3.1.0^{4,12}]dodeca-2,4(12),5,7-tetraene-2-carbonyl}-6-azaspiro[2.5]octan-5-yl]formamido}-N-cyclopropyl-2-oxo-4-[(3S)-2-oxopyrrolidin-3-yl]butanamide]
IC50 (HRV3C; [4]): 200 to 2000 nM | EC50 [1, 5]: 1000 to 10000 nM | CC50 at 6 days [2]: ≥ 100000 nM | EC50 [3, 6]: < 1000 nM | IC50 (human cathepsin L): 1000 to 10000 nM | IC50 (SARS-Cov-2 3CLpro): < 20 nM

O=C(NC1CC1)C(=O)[C@H](C[C@@H]1CCNC1=O)NC(=O)[C@@H]1CC2(CCN1C(=O)c1cn3ccccc3n1)CC2 [Compound 20, (3S)—N-cyclopropyl-3-{[(5S)-6-{imidazo[1,2-a]pyridine-2-carbonyl}-6-azaspiro[2.5]octan-5-yl]formamido}-2-oxo-4-[(3S)-2-oxopyrrolidin-3-yl]butanamide]
IC50 (HRV3C; read-out: HRV IC50): > 10000 nM | EC50 ([1]; Betacoronavirus 1, OC43, HeLa): > 10000 nM | CC50 at 6 days [2]: ≥ 100000 nM | EC50 [3, 6]: > 50000 nM | IC50 (human cathepsin L): ≥ 10000 nM | IC50 (SARS-Cov-2 3CLpro): 200 to 2000 nM

O=C(NC1CC1)C(=O)[C@H](C[C@@H]1CCNC1=O)NC(=O)[C@@H]1CC2(CCN1C(=O)c1ccc3ccccc3c1)CC2 [Compound 21, (S)-6-(2-naphthoyl)-N—((S)-4-(cyclopropylamino)-3,4-dioxo-1-((S)-2-oxopyrrolidin-3-yl)butan-2-yl)-6-azaspiro[2.5]octane-5-carboxamide]
IC50 (HRV3C; [4]): 200 to 2000 nM | EC50 [1, 5]: 100 to 1000 nM | CC50 at 6 days [2]: ≥ 100000 nM | EC50 [3, 6]: < 1000 nM | IC50 (human cathepsin L): 1000 to 10000 nM | IC50 (SARS-Cov-2 3CLpro): < 20 nM

O=C(NC1CC1)C(=O)C(C[C@@H]1CCNC1=O)NC(=O)[C@@H]1CC2(CCN1C(=O)c1cc3ccccc3n1-c1ccccc1)CC2 (stereo partly drawn) [Compound 22, N-cyclopropyl-2-oxo-4-[(3S)-2-oxopyrrolidin-3-yl]-3-{[(5S)-6-(1-phenylindole-2-carbonyl)-6-azaspiro[2.5]octan-5-yl]formamido}butanamide]
IC50 (HRV3C): 200 to 2000 nM | EC50 [1, 5]: 100 to 1000 nM | CC50 at 6 days [2]: 10000 to 100000 nM | EC50 ([3]; Severe acute respiratory syndrome coronavirus 2, Vero C1008, 96 h, read-out: VeroE6 + CP (EC50)): < 1000 nM | IC50 (human cathepsin L): ≥ 10000 nM | IC50 (SARS-Cov-2 3CLpro): < 20 nM

O=C(NC1CC1)C(=O)C(C[C@@H]1CCNC1=O)NC(=O)[C@@H]1CC2(CCN1C(=O)c1nc3ccccc3s1)CC2 (stereo partly drawn) [Compound 23, 3-{[(5S)-6-(1,3-benzothiazole-2-carbonyl)-6-azaspiro[2.5]octan-5-yl]formamido}-N-cyclopropyl-2-oxo-4-[(3S)-2-oxopyrrolidin-3-yl]butanamide]
IC50 (HRV3C; [4]): 2000 to 20000 nM | EC50 [1, 5]: 100 to 1000 nM | CC50 at 6 days [2]: ≥ 100000 nM | EC50 [3, 6]: 1000 to 10000 nM | IC50 (human cathepsin L): ≥ 10000 nM | IC50 (SARS-Cov-2 3CLpro): 20 to 200 nM

O=C(NC1CC1)C(=O)C(C[C@@H]1CCNC1=O)NC(=O)[C@@H]1CC2(CCN1C(=O)c1cnn(-c3ccccc3)n1)CC2 (stereo partly drawn) [Compound 24]
IC50 (HRV3C; [4]): 200 to 2000 nM | EC50 [1, 5]: 1000 to 10000 nM | CC50 at 6 days [2]: ≥ 100000 nM | EC50 [3, 6]: 1000 to 10000 nM | IC50 (human cathepsin L): ≥ 10000 nM | IC50 (SARS-Cov-2 3CLpro): 200 to 2000 nM

O=C(NC1CC1)C(=O)C(C[C@@H]1CCNC1=O)NC(=O)[C@@H]1[C@@H]2C[C@@H](CC23CC3)N1C(=O)c1cc2ccccc2s1 (stereo partly drawn) [Compound 25, 3-[(1R,4S,6S)-5-(1-benzothiophene-2-carbonyl)-5-azaspiro[bicyclo[2.2.1]heptane-2,1′-cyclopropan]-6-ylformamido]-N-cyclopropyl-2-oxo-4-[(3S)-2-oxopyrrolidin-3-yl]butanamide]
IC50 (HRV3C; [4]): 200 to 2000 nM | EC50 [1, 5]: 1000 to 10000 nM | CC50 at 6 days [2]: ≥ 100000 nM | EC50 [3, 6]: 1000 to 10000 nM | IC50 (human cathepsin L): ≥ 10000 nM | IC50 (SARS-Cov-2 3CLpro): 20 to 200 nM

O=C(NC1CC1)C(=O)C(C[C@@H]1CCNC1=O)NC(=O)[C@@H]1[C@@H]2C[C@@H](CC23CC3)N1C(=O)c1nc(-c2ccccc2)cs1 (stereo partly drawn) [Compound 26, N-cyclopropyl-2-oxo-4-[(3S)-2-oxopyrrolidin-3-yl]-3-[(1R,4S,6S)-5-(4-phenyl-1,3-thiazole-2-carbonyl)-5-azaspiro[bicyclo[2.2.1]heptane-2,1′-cyclopropan]-6-ylformamido]butanamide]
IC50 (HRV3C; [4]): 200 to 2000 nM | EC50 [1, 5]: 1000 to 10000 nM | CC50 at 6 days [2]: ≥ 100000 nM | EC50 [3, 6]: 1000 to 10000 nM | IC50 (human cathepsin L): ≥ 10000 nM | IC50 (SARS-Cov-2 3CLpro): 200 to 2000 nM

CC(C)n1c(C(=O)N2CCC3(CC3)C[C@H]2C(=O)N[C@@H](C[C@@H]2CCNC2=O)C(=O)C(=O)NC2CC2)cc2ccccc21 [Compound 27]
IC50 (HRV3C; [4]): 200 to 2000 nM | EC50 [1, 5]: 100 to 1000 nM | CC50 at 6 days [2]: ≥ 100000 nM | EC50 [3, 6]: < 1000 nM | IC50 (human cathepsin L): ≥ 10000 nM | IC50 (SARS-Cov-2 3CLpro): < 20 nM

O=C(NC1CC1)C(=O)[C@H](C[C@@H]1CCNC1=O)NC(=O)[C@@H]1CC2(CCN1C(=O)c1csc3ccccc13)CC2 [Compound 28]
IC50 (HRV3C; [4]): 20 to 200 nM | EC50 [1, 5]: 1000 to 10000 nM | CC50 at 6 days [2]: ≥ 100000 nM | EC50 [3, 6]: < 1000 nM | IC50 (human cathepsin L): ≥ 10000 nM | IC50 (SARS-Cov-2 3CLpro): < 20 nM

COc1ccc2cc(C(=O)N3CCC4(CC4)C[C@H]3C(=O)N[C@@H](C[C@@H]3CCNC3=O)C(=O)C(=O)NC3CC3)n(C)c2c1 [Compound 29]
IC50 (HRV3C; [4]): 2000 to 20000 nM | EC50 [1, 5]: 100 to 1000 nM | CC50 at 6 days [2]: ≥ 100000 nM | EC50 [3, 6]: < 1000 nM | IC50 (human cathepsin L): ≥ 10000 nM | IC50 (SARS-Cov-2 3CLpro): < 20 nM

Cc1ccc2cc(C(=O)N3CCC4(CC4)C[C@H]3C(=O)N[C@@H](C[C@@H]3CCNC3=O)C(=O)C(=O)NC3CC3)n(C)c2c1 [Compound 30]
IC50 (HRV3C; read-out: HRV IC50): > 10000 nM | EC50 [1, 5]: 100 to 1000 nM | CC50 at 6 days [2]: ≥ 100000 nM | EC50 [3, 6]: < 1000 nM | IC50 (human cathepsin L): ≥ 10000 nM | IC50 (SARS-Cov-2 3CLpro): 20 to 200 nM

Cn1c(C(=O)N2CCC3(CC3)C[C@H]2C(=O)N[C@@H](C[C@@H]2CCNC2=O)C(=O)C(=O)NC2CC2)cc2ccc(Cl)cc21 [Compound 31]
IC50 (HRV3C; [4]): 2000 to 20000 nM | EC50 [1, 5]: 100 to 1000 nM | CC50 at 6 days [2]: ≥ 100000 nM | EC50 [3, 6]: < 1000 nM | IC50 (human cathepsin L): ≥ 10000 nM | IC50 (SARS-Cov-2 3CLpro): < 20 nM

O=C(NC1CC1)C(=O)[C@H](C[C@@H]1CCNC1=O)NC(=O)[C@@H]1CC2(CCN1C(=O)[C@@H]1CCCc3ccccc31)CC2 [Compound 32]
IC50 (HRV3C; [4]): 200 to 2000 nM | EC50 [1, 5]: 1000 to 10000 nM | CC50 at 6 days [2]: ≥ 100000 nM | EC50 [3, 6]: < 1000 nM | IC50 (human cathepsin L): ≥ 10000 nM | IC50 (SARS-Cov-2 3CLpro): 20 to 200 nM

O=C(NC1CC1)C(=O)[C@H](C[C@@H]1CCNC1=O)NC(=O)[C@@H]1CC2(CCN1C(=O)[C@H]1CCCc3ccccc31)CC2 [Compound 33]
IC50 (HRV3C; [4]): 200 to 2000 nM | EC50 [1, 5]: 1000 to 10000 nM | CC50 at 6 days [2]: ≥ 100000 nM | EC50 [3, 6]: < 1000 nM | IC50 (human cathepsin L): ≥ 10000 nM | IC50 (SARS-Cov-2 3CLpro): 20 to 200 nM

From patent publication US12065428B2, “Anti-viral compounds” (Aligos Therapeutics, Inc., priority 2021, dated 2024)
